Results taken from the supplement of paper PMC8882468.
± gives the standard deviation of the averaged measurements.

How the values were obtained:
Test in all cases: CTG-3D luminescence at 96 h relative to day-0 seeding control (ratio to day 0); higher = more growth / less cytotoxicity; PDxO 3D drug screen, 96 h, CTG-3D normalised to day-0 seeding control.
[1] = tested on: HCI-008 (organoid from a HER2-enriched breast cancer xenograft)
[2] = tested on: HCI-010 (organoid from a breast cancer xenograft)
[3] = tested on: HCI-011.E2 (organoid from an ER-positive breast cancer xenograft)
[4] = tested on: HCI-023 (organoid from a triple-negative breast cancer xenograft)
[5] = tested on: HCI-025 (organoid from a breast cancer xenograft)
[6] = tested on: HCI-027 (organoid from a triple-negative breast cancer xenograft)

CCN(c1cc(C#CCN2CCOCC2)cc(C(=O)NCc2c(C)cc(C)[nH]c2=O)c1C)[C@H]1CC[C@H](N(C)CCOC)CC1
CTG-3D luminescence at 96 h ([1]; 12.5 pM, days in culture: 228): 1.54 ± 0.067 | CTG-3D luminescence at 96 h ([1]; 12.5 pM, days in culture: 244): 1.38 | CTG-3D luminescence at 96 h ([1]; 0.00025 µM, days in culture: 228): 1.571 ± 0.015 | CTG-3D luminescence at 96 h ([1]; 0.00025 µM, days in culture: 244): 2.13 | CTG-3D luminescence at 96 h ([1]; 0.005 µM, days in culture: 228): 1.283 ± 0.0089 | CTG-3D luminescence at 96 h ([1]; 0.005 µM, days in culture: 244): 1.81 | CTG-3D luminescence at 96 h ([1]; 0.1 µM, days in culture: 228): 1.61 ± 0.1 | CTG-3D luminescence at 96 h ([1]; 0.1 µM, days in culture: 244): 2.04 | CTG-3D luminescence at 96 h ([1]; 1 µM, days in culture: 228): 1.59 ± 0.14 | CTG-3D luminescence at 96 h ([1]; 1 µM, days in culture: 244): 1.7 | CTG-3D luminescence at 96 h ([1]; 10 µM, days in culture: 228): 1.63 ± 0.48 | CTG-3D luminescence at 96 h ([1]; 10 µM, days in culture: 244): 2.31 | CTG-3D luminescence at 96 h ([1]; 100 µM, days in culture: 228): 1.43 ± 0.024 | CTG-3D luminescence at 96 h ([1]; 100 µM, days in culture: 244): 2.04 | CTG-3D luminescence at 96 h ([1]; 625 fM, days in culture: 228): 1.77 ± 0.43 | CTG-3D luminescence at 96 h ([1]; 625 fM, days in culture: 244): 2.47 | CTG-3D luminescence at 96 h ([2]; 12.5 pM, days in culture: 52): 1.83 | CTG-3D luminescence at 96 h ([2]; 12.5 pM, days in culture: 65): 1.6 | CTG-3D luminescence at 96 h ([2]; 12.5 pM, days in culture: 103): 3.17 | CTG-3D luminescence at 96 h ([2]; 0.00025 µM, days in culture: 52): 2.5 | CTG-3D luminescence at 96 h ([2]; 0.00025 µM, days in culture: 65): 1.76 | CTG-3D luminescence at 96 h ([2]; 0.00025 µM, days in culture: 103): 3.22 | CTG-3D luminescence at 96 h ([2]; 0.005 µM, days in culture: 52): 2.34 | CTG-3D luminescence at 96 h ([2]; 0.005 µM, days in culture: 65): 1.72 | CTG-3D luminescence at 96 h ([2]; 0.005 µM, days in culture: 103): 3.07 | CTG-3D luminescence at 96 h ([2]; 0.1 µM, days in culture: 52): 2.47 | CTG-3D luminescence at 96 h ([2]; 0.1 µM, days in culture: 65): 1.49 | CTG-3D luminescence at 96 h ([2]; 0.1 µM, days in culture: 103): 3.35 | CTG-3D luminescence at 96 h ([2]; 1 µM, days in culture: 52): 2.48 | CTG-3D luminescence at 96 h ([2]; 1 µM, days in culture: 65): 1.78 | CTG-3D luminescence at 96 h ([2]; 1 µM, days in culture: 103): 3.09 | CTG-3D luminescence at 96 h ([2]; 10 µM, days in culture: 52): 2.29 | CTG-3D luminescence at 96 h ([2]; 10 µM, days in culture: 65): 1.58 | CTG-3D luminescence at 96 h ([2]; 10 µM, days in culture: 103): 2.84 | CTG-3D luminescence at 96 h ([2]; 100 µM, days in culture: 52): 1.5 | CTG-3D luminescence at 96 h ([2]; 100 µM, days in culture: 65): 1.05 | CTG-3D luminescence at 96 h ([2]; 100 µM, days in culture: 103): 1.88 | CTG-3D luminescence at 96 h ([2]; 625 fM, days in culture: 52): 2.03 | CTG-3D luminescence at 96 h ([2]; 625 fM, days in culture: 65): 1.8 | CTG-3D luminescence at 96 h ([2]; 625 fM, days in culture: 103): 2.7 | CTG-3D luminescence at 96 h ([3]; 12.5 pM): 1.4 ± 0.56 | CTG-3D luminescence at 96 h ([3]; 12.5 pM, days in culture: 74): 1.76 | CTG-3D luminescence at 96 h ([3]; 0.00025 µM): 1.39 ± 0.11 | CTG-3D luminescence at 96 h ([3]; 0.00025 µM, days in culture: 74): 2.24 | CTG-3D luminescence at 96 h ([3]; 0.005 µM): 1.48 ± 0.29 | CTG-3D luminescence at 96 h ([3]; 0.005 µM, days in culture: 74): 2.14 | CTG-3D luminescence at 96 h ([3]; 0.1 µM): 1.74 ± 0.69 | CTG-3D luminescence at 96 h ([3]; 0.1 µM, days in culture: 74): 1.77 | CTG-3D luminescence at 96 h ([3]; 1 µM): 1.74 ± 0.84 | CTG-3D luminescence at 96 h ([3]; 1 µM, days in culture: 74): 1.99 | CTG-3D luminescence at 96 h ([3]; 10 µM): 2.09 ± 0.45 | CTG-3D luminescence at 96 h ([3]; 10 µM, days in culture: 74): 3.31 | CTG-3D luminescence at 96 h ([3]; 100 µM): 2.03 ± 0.59 | CTG-3D luminescence at 96 h ([3]; 100 µM, days in culture: 74): 2.8 | CTG-3D luminescence at 96 h ([3]; 625 fM): 1.63 ± 0.4 | CTG-3D luminescence at 96 h ([3]; 625 fM, days in culture: 74): 1.61 | CTG-3D luminescence at 96 h ([4]; 12.5 pM, days in culture: 111): 1.69 | CTG-3D luminescence at 96 h ([4]; 12.5 pM, days in culture: 128): 1.51 ± 0.29 | CTG-3D luminescence at 96 h ([4]; 0.00025 µM, days in culture: 111): 1.38 | CTG-3D luminescence at 96 h ([4]; 0.00025 µM, days in culture: 128): 1.63 ± 0.46 | CTG-3D luminescence at 96 h ([4]; 0.005 µM, days in culture: 111): 1.47 | CTG-3D luminescence at 96 h ([4]; 0.005 µM, days in culture: 128): 1.57 ± 0.1 | CTG-3D luminescence at 96 h ([4]; 0.1 µM, days in culture: 111): 1.39 | CTG-3D luminescence at 96 h ([4]; 0.1 µM, days in culture: 128): 1.99 ± 0.051 | CTG-3D luminescence at 96 h ([4]; 1 µM, days in culture: 111): 1.14 | CTG-3D luminescence at 96 h ([4]; 1 µM, days in culture: 128): 1.77 ± 0.31 | CTG-3D luminescence at 96 h ([4]; 10 µM, days in culture: 111): 1.42 | CTG-3D luminescence at 96 h ([4]; 10 µM, days in culture: 128): 2.02 ± 0.27 | CTG-3D luminescence at 96 h ([4]; 100 µM, days in culture: 111): 0.673 | CTG-3D luminescence at 96 h ([4]; 100 µM, days in culture: 128): 1.09 ± 0.066 | CTG-3D luminescence at 96 h ([4]; 625 fM, days in culture: 111): 2.1 | CTG-3D luminescence at 96 h ([4]; 625 fM, days in culture: 128): 1.5 ± 0.32 | CTG-3D luminescence at 96 h ([5]; 12.5 pM, days in culture: 172): 2.86 | CTG-3D luminescence at 96 h ([5]; 12.5 pM, days in culture: 209): 2.08 | CTG-3D luminescence at 96 h ([5]; 12.5 pM, days in culture: 218): 1.66 | CTG-3D luminescence at 96 h ([5]; 0.00025 µM, days in culture: 172): 2.03 | CTG-3D luminescence at 96 h ([5]; 0.00025 µM, days in culture: 209): 3.04 | CTG-3D luminescence at 96 h ([5]; 0.00025 µM, days in culture: 218): 1.66 | CTG-3D luminescence at 96 h ([5]; 0.005 µM, days in culture: 172): 3.74 | CTG-3D luminescence at 96 h ([5]; 0.005 µM, days in culture: 209): 2.37 | CTG-3D luminescence at 96 h ([5]; 0.005 µM, days in culture: 218): 1.76 | CTG-3D luminescence at 96 h ([5]; 0.1 µM, days in culture: 172): 2.35 | CTG-3D luminescence at 96 h ([5]; 0.1 µM, days in culture: 209): 1.7 | CTG-3D luminescence at 96 h ([5]; 0.1 µM, days in culture: 218): 1.73 | CTG-3D luminescence at 96 h ([5]; 1 µM, days in culture: 172): 2.66 | CTG-3D luminescence at 96 h ([5]; 1 µM, days in culture: 209): 2.53 | CTG-3D luminescence at 96 h ([5]; 1 µM, days in culture: 218): 1.43 | CTG-3D luminescence at 96 h ([5]; 10 µM, days in culture: 172): 1.89 | CTG-3D luminescence at 96 h ([5]; 10 µM, days in culture: 209): 1.47 | CTG-3D luminescence at 96 h ([5]; 10 µM, days in culture: 218): 2.1 | CTG-3D luminescence at 96 h ([5]; 100 µM, days in culture: 172): 2.28 | CTG-3D luminescence at 96 h ([5]; 100 µM, days in culture: 209): 1.54 | CTG-3D luminescence at 96 h ([5]; 100 µM, days in culture: 218): 1.58 | CTG-3D luminescence at 96 h ([5]; 625 fM, days in culture: 172): 2.74 | CTG-3D luminescence at 96 h ([5]; 625 fM, days in culture: 209): 2.18 | CTG-3D luminescence at 96 h ([5]; 625 fM, days in culture: 218): 1.76 | CTG-3D luminescence at 96 h ([6]; 12.5 pM, days in culture: 176): 2.06 | CTG-3D luminescence at 96 h ([6]; 12.5 pM, days in culture: 194): 2.66 | CTG-3D luminescence at 96 h ([6]; 12.5 pM, days in culture: 201): 3.28 | CTG-3D luminescence at 96 h ([6]; 0.00025 µM, days in culture: 176): 2.13 | CTG-3D luminescence at 96 h ([6]; 0.00025 µM, days in culture: 194): 1.86 | CTG-3D luminescence at 96 h ([6]; 0.00025 µM, days in culture: 201): 3.2 | CTG-3D luminescence at 96 h ([6]; 0.005 µM, days in culture: 176): 3.35 | CTG-3D luminescence at 96 h ([6]; 0.005 µM, days in culture: 194): 2.09 | CTG-3D luminescence at 96 h ([6]; 0.005 µM, days in culture: 201): 2.92 | CTG-3D luminescence at 96 h ([6]; 0.1 µM, days in culture: 176): 1.65 | CTG-3D luminescence at 96 h ([6]; 0.1 µM, days in culture: 194): 2.1 | CTG-3D luminescence at 96 h ([6]; 0.1 µM, days in culture: 201): 2.89 | CTG-3D luminescence at 96 h ([6]; 1 µM, days in culture: 176): 1.87 | CTG-3D luminescence at 96 h ([6]; 1 µM, days in culture: 194): 2.03 | CTG-3D luminescence at 96 h ([6]; 1 µM, days in culture: 201): 3.09 | CTG-3D luminescence at 96 h ([6]; 10 µM, days in culture: 176): 2.06 | CTG-3D luminescence at 96 h ([6]; 10 µM, days in culture: 194): 2.21 | CTG-3D luminescence at 96 h ([6]; 10 µM, days in culture: 201): 2.64 | CTG-3D luminescence at 96 h ([6]; 100 µM, days in culture: 176): 1.32 | CTG-3D luminescence at 96 h ([6]; 100 µM, days in culture: 194): 2.02 | CTG-3D luminescence at 96 h ([6]; 100 µM, days in culture: 201): 2.22 | CTG-3D luminescence at 96 h ([6]; 625 fM, days in culture: 176): 2.38 | CTG-3D luminescence at 96 h ([6]; 625 fM, days in culture: 194): 1.98 | CTG-3D luminescence at 96 h ([6]; 625 fM, days in culture: 201): 2.42
